Assay results published in patent US20200149038A1, “METHODS AND COMPOSITIONS RELATING TO HOMOLOGY-DIRECTED REPAIR” (CHILDREN'S MEDICAL CENTER CORPORATION, priority 2016, published 2020).
Like-named read-outs stand apart in the source and are kept apart here.

Columns and labels:
[1] = system: Cas9 with gRNA targeting CCR5 in HEK293 cells; test: High Throughput Genome-wide Translocation Sequencing (HTGTS) off-target analysis; format: cell-based, human
Excerpt: However the impact of DNA repair pathway choice manipulation on genomic integrity is largely unaddressed. To address the impact of ectopic expression of RAD52 and dn53BP1 genomic integrity and CRISPR/Cas9-associated off-target effects the state of the art “High Throughput Genome-wide Translocation Sequencing” (HTGTS)^20—an unbiased approach to monitor off-target (OT) cutting—was utilized. […] As CRISPR/Cas9 may have unintended cutting activity at totally unrelated sequences that can not be predicted by an algorithm, the off-target activity of each guide by HTGTS was examined (data not shown). Though majority of the OTs identified by HGTS overlapped with those identified previously, it was possible to detect novel OTs (data not shown). To study the impact of RAD52 and dn53BP1 on OTs and genomic integrity one guide with no OTs (CCR5D) and other guide that has 7 OTs identified by HTGTS (CCR5Q) were further examined.
HTGTS and Off-Target Analysis. Off-target analysis was carried out by HTGTS as described earlier^20. Briefly, HEK293 cells were co-transfected with expression plasmids encoding Cas9:RAG1B (20 μg), guide RNA targeting CCR5 (10 μg), RAD52 and dn53BP1 (5 μg each) and GFA (5 μg) using Calcium Phosphate. Cells were lysed 48 hours post-transfection and DNA was isolated by ethanol precipitation. 50 μg of DNA was processed for HTGTS as described^20.
However, the impact that such manipulations may have on genomic integrity has not been addressed. To address the impact of ectopic expression of RAD52 and dn53BP1 on genomic integrity and CRISPR/Cas9 specificity High Throughput Genome-wide Translocation Sequencing (HTGTS) was utilized (Frock et al., 2014)—an unbiased approach to monitor the specificity and off-target (OT) activity of Cas9 and other engineered nucleases as well as other types of DSBs.
HTGTS was conducted to analyse off-target effects for gRNA targeting CCR5 (FIG. 8A).

[2] = system: primary human CD34+ hematopoietic stem and progenitor cells; conditions: Mandal et al. 2014; cited from earlier work

Substance | number of off-target sites (OTs) identified by HTGTS [1] | off-target activity in CD34+ HSPC [2] | number of off-target sites (OTs) identified by HTGTS ([1]; listed as CCR5D)
gCCR5Q: guide RNA targeting CCR5, spacer GCTGTGTTTGCGTCTCTCCC (guide GCTGTGTTTGCGTCTCTCCCAGG; listed as DNA, chemistry not given here; the letters are possibly those of the target site; listed as Homo sapiens) | 7 | did not exhibit OT activity | 
gCCR5D: guide RNA targeting CCR5, spacer TCACTATGCTGCCGCCCAGT (guide TCACTATGCTGCCGCCCAGTGGG; listed as DNA, chemistry not given here; the letters are possibly those of the target site; listed as Homo sapiens) | no OT | did not exhibit OT activity | no OTs
